Experiments:
Assay in all cases: MIC of baseline clinical isolates (Example 8)
Type in all cases: cell-based
[1] = test system: Staphylococcus pasteuri; conditions: Staphylococcus pasteuri baseline isolates (N′ = 1), central laboratory, mITT
Description: (§1) Microbiology was assessed on Day 1 and at the time of any subsequent surgical procedure at the index site. Samples were collected from the infected bone site or involved tissue adjacent to any implant(s), swabs of the deep infection site, and the superficial tissue/wound closure/sinus tract site. […] Parallel sets of samples were analyzed by the local clinical site laboratory to guide patient antibiotic treatment.

[2] = test system: Staphylococcus haemolyticus; conditions: Staphylococcus haemolyticus baseline isolates (N′ = 1), central laboratory, mITT
Description: as §1

[3] = test system: S. epidermidis; conditions: Staphylococcus epidermidis baseline isolates (N′ = 5), central laboratory, mITT
Description: as §1

[4] = test system: S. aureus (MRSA, MSSA); conditions: Staphylococcus aureus, MRSA baseline isolates (N′ = 4), central laboratory, mITT
Description: as §1

[5] = test system: Staphylococcus arlettae; conditions: Staphylococcus arlettae baseline isolates (N′ = 1), central laboratory, mITT
Description: as §1

[6] = test system: Staphylococcus lugdunensis; conditions: Staphylococcus lugdunensis baseline isolates (N′ = 3), central laboratory, mITT
Description: as §1

[7] = test system: Staphylococcus hominis; conditions: Staphylococcus hominis baseline isolates (N′ = 1), central laboratory, mITT
Description: as §1

[8] = test system: Corynebacterium amycolatum; conditions: Corynebacterium amycolatum baseline isolates (N′ = 1), central laboratory, mITT
Description: (§2) Microbiology was assessed on Day 1 and at the time of any subsequent surgical procedure at the index site. Samples were collected from the infected bone site or involved tissue adjacent to any implant(s), swabs of the deep infection site, and the superficial tissue/wound closure/sinus tract site. Isolation and identification of aerobic and anerobic bacteria was conducted at a central microbiology laboratory (IHMA, Schaumburg, IL) and susceptibility of the isolates to MBN-101 (BisEDT) and comparator agents was performed per Clinical and Laboratory Standards Institute (CLSI). Parallel sets of samples were analyzed by the local clinical site laboratory to guide patient antibiotic treatment.

[9] = test system: non-speciated Corynebacterium; conditions: Corynebacterium non-speciated baseline isolates (N′ = 2), central laboratory, mITT
Description: as §2

[10] = test system: Corynebacterium resistens; conditions: Corynebacterium resistens baseline isolates (N′ = 1), central laboratory, mITT
Description: as §2

[11] = test system: Dermabacter hominis; conditions: Dermabacter hominis baseline isolates (N′ = 1), central laboratory, mITT
Description: as §2

[12] = test system: Streptococcus oralis; conditions: Streptococcus oralis baseline isolates (N′ = 1), central laboratory, mITT
Description: as §2

[13] = test system: Corynebacterium jeikeium; conditions: Corynebacterium jeikeium baseline isolates (N′ = 2), central laboratory, mITT
Description: as §2

With `CC1(C)S[C@@H]2[C@H](NC(=O)[C@H](N)c3ccc(O)cc3)C(=O)N2[C@H]1C(=O)O.O=C(O)[C@H]1/C(=C/CO)O[C@@H]2CC(=O)N21` [AMC] the “Mean MIC” value [1] was 0.12 mg/L, the “n (% resistant)” value [1] was 0 (0.0) n (%) and the “Mean MIC” value [2] was 2.00 mg/L. For the same molecule, the “n (% resistant)” value [2] was 0 (0.0) n (%), the “Mean MIC” value [3] was 1.05 mg/L and the “n (% resistant)” value [3] was 0 (0.0) n (%). For the same molecule, the “Mean MIC” value [4] was 8.00 mg/L, the “n (% resistant)” value [4] was 0 (0.0) n (%) and the “Mean MIC” value [5] was 0.25 mg/L. For the same molecule, the “n (% resistant)” value [5] was 0 (0.0) n (%), the “Mean MIC” value [6] was 3.67 mg/L and the “n (% resistant)” value [6] was 0 (0.0) n (%). For the same molecule, the “Mean MIC” value [7] was 2.00 mg/L, the “n (% resistant)” value [7] was 0 (0.0) n (%) and the “Mean MIC” value [8] was 1.00 mg/L. For the same molecule, the “n (% resistant)” value [8] was 0 (0.0) n (%), the “Mean MIC” value [9] was 4.03 mg/L and the “n (% resistant)” value [9] was 0 (0.0) n (%). The “Mean MIC” value [10] was 8.00 mg/L, the “n (% resistant)” value [10] was 0 (0.0) n (%) and the “Mean MIC” value [11] was 0.50 mg/L. The “n (% resistant)” value [11] was 0 (0.0) n (%), the “Mean MIC” value [12] was 0.06 mg/L and the “n (% resistant)” value [12] was 0 (0.0) n (%). The “Mean MIC” value [13] was 3.00 mg/L and the “n (% resistant)” value [13] was 0 (0.0) n (%).

With `CC1(C)S[C@@H]2[C@H](NC(=O)[C@H](N)c3ccccc3)C(=O)N2[C@H]1C(=O)O` [AMP] the “Mean MIC” value [1] was 0.25 mg/L, the “n (% resistant)” value [1] was 0 (0.0) n (%) and the “Mean MIC” value [2] was 16.00 mg/L. The “n (% resistant)” value [2] was 0 (0.0) n (%), the “Mean MIC” value [3] was 2.60 mg/L and the “n (% resistant)” value [3] was 0 (0.0) n (%). For the same molecule, the “Mean MIC” value [4] was 28.00 mg/L, the “n (% resistant)” value [4] was 0 (0.0) n (%) and the “Mean MIC” value [5] was 0.50 mg/L. For the same molecule, the “n (% resistant)” value [5] was 0 (0.0) n (%), the “Mean MIC” value [6] was 7.33 mg/L and the “n (% resistant)” value [6] was 0 (0.0) n (%). The “Mean MIC” value [7] was 4.00 mg/L and the “n (% resistant)” value [7] was 0 (0.0) n (%).

`CO/N=C(\C(=O)N[C@@H]1C(=O)N2C(C(=O)O)=C(CSc3nc(=O)c(O)nn3C)CS[C@H]12)c1csc(N)n1` [CRO] was tested, and the “Mean MIC” value [8] was 1.00 mg/L, the “n (% resistant)” value [8] was 0 (0.0) n (%) and the “Mean MIC” value [9] was 0.75 mg/L. For the same molecule, the “n (% resistant)” value [9] was 0 (0.0) n (%), the “Mean MIC” value [10] was 4.00 mg/L and the “n (% resistant)” value [10] was 1 (100.0) n (%). The “Mean MIC” value [11] was 0.50 mg/L, the “n (% resistant)” value [11] was 0 (0.0) n (%) and the “Mean MIC” value [12] was 0.06 mg/L. For the same molecule, the “n (% resistant)” value [12] was 0 (0.0) n (%), the “Mean MIC” value [13] was 4.00 mg/L and the “n (% resistant)” value [13] was 2 (100.0) n (%).

In the case of `CC[C@H]1OC(=O)[C@H](C)[C@@H](O[C@H]2C[C@@](C)(OC)[C@@H](O)[C@H](C)O2)[C@H](C)[C@@H](O[C@@H]2O[C@H](C)C[C@H](N(C)C)[C@H]2O)[C@](C)(O)C[C@@H](C)C(=O)[C@H](C)[C@@H](O)[C@]1(C)O` [ERY], the “Mean MIC” value [8] is reported as 4.00 mg/L, the “n (% resistant)” value [8] is reported as 1 (100.0) n (%) and the “Mean MIC” value [9] is reported as 2.02 mg/L. The “n (% resistant)” value [9] was 1 (50.0) n (%), the “Mean MIC” value [10] was 0.02 mg/L and the “n (% resistant)” value [10] was 0 (0.0) n (%). The “Mean MIC” value [11] was 2.00 mg/L, the “n (% resistant)” value [11] was 1 (100.0) n (%) and the “Mean MIC” value [12] was 1.00 mg/L. The “n (% resistant)” value [12] was 1 (100.0) n (%), the “Mean MIC” value [13] was 2.25 mg/L and the “n (% resistant)” value [13] was 1 (50.0) n (%).

In the case of `CN(C)c1ccc(O)c2c1C[C@H]1C[C@H]3[C@H](N(C)C)C(O)=C(C(N)=O)C(=O)[C@@]3(O)C(O)=C1C2=O` [MIN], the “Mean MIC” value [1] is reported as 0.06 mg/L, the “n (% resistant)” value [1] is reported as 0 (0.0) n (%) and the “Mean MIC” value [2] is reported as 0.12 mg/L. The “n (% resistant)” value [2] was 0 (0.0) n (%), the “Mean MIC” value [3] was 0.18 mg/L and the “n (% resistant)” value [3] was 0 (0.0) n (%). The “Mean MIC” value [4] was 0.11 mg/L, the “n (% resistant)” value [4] was 0 (0.0) n (%) and the “Mean MIC” value [5] was 0.25 mg/L. For the same molecule, the “n (% resistant)” value [5] was 0 (0.0) n (%), the “Mean MIC” value [6] was 0.05 mg/L and the “n (% resistant)” value [6] was 0 (0 0) n (%). For the same molecule, the “Mean MIC” value [7] was 0.12 mg/L and the “n (% resistant)” value [7] was 0 (0.0) n (%).

`Cc1onc(-c2ccccc2)c1C(=O)N[C@@H]1C(=O)N2[C@@H]1SC(C)(C)[C@@H]2C(=O)O` [OXA] was tested, and the “Mean MIC” value [1] was 0.25 mg/L, the “n (% resistant)” value [1] was 0 (0.0) n (%) and the “Mean MIC” value [2] was 4.00 mg/L. The “n (% resistant)” value [2] was 1 (100.0) n (%), the “Mean MIC” value [3] was 125 mg/L and the “n (% resistant)” value [3] was 2 (40.0) n (%). The “n (% resistant)” value [4] was 4 (100.0) n (%), the “Mean MIC” value [5] was 2.00 mg/L and the “n (% resistant)” value [5] was 1 (100.0) n (%). For the same molecule, the “Mean MIC” value [6] was 2.83 mg/L, the “n (% resistant)” value [6] was 2. (66.7) n (%) and the “Mean MIC” value [7] was 4.00 mg/L. For the same molecule, the “n (% resistant)” value [7] was 1 (100.0) n (%).

With `CC1(C)S[C@@H]2[C@H](NC(=O)Cc3ccccc3)C(=O)N2[C@H]1C(=O)O` [PEN] the “Mean MIC” value [8] was 1.00 mg/L, the “n (% resistant)” value [8] was 0 (0.0) n (%) and the “Mean MIC” value [9] was 2.06 mg/L. The “Mean MIC” value [10] was 4.00 mg/L, the “n (% resistant)” value [10] was 1 (100.0) n (%) and the “Mean MIC” value [11] was 0.50 mg/L. The “n (% resistant)” value [11] was 0 (0.0) n (%), the “Mean MIC” value [12] was 0.06 mg/L and the “n (% resistant)” value [12] was 0 (0.0) n (%). For the same molecule, the “Mean MIC” value [13] was 4.00 mg/L and the “n (% resistant)” value [13] was 2 (100.0) n (%).

With `COc1cc(Cc2cnc(N)nc2N)cc(OC)c1OC.Cc1cc(NS(=O)(=O)c2ccc(N)cc2)no1` [SXT] the “Mean MIC” value [1] was 0.12 mg/L, the “Mean MIC” value [2] was 0.25 mg/L and the “n (% resistant)” value [2] was 10.0 n (%). For the same molecule, the “Mean MIC” value [3] was 4.42 mg/L, the “n (% resistant)” value [3] was 3 (60.0) n (%) and the “Mean MIC” value [4] was 2.09 mg/L. The “n (% resistant)” value [4] was 1 (25.0) n (%), the “Mean MIC” value [5] was 8.00 mg/L and the “n (% resistant)” value [5] was 1 (100.0) n (%). The “Mean MIC” value [6] was 0.16 mg/L, the “n (% resistant)” value [6] was 0 (0.0) n (%) and the “Mean MIC” value [7] was 8.00 mg/L. The “Mean MIC” value [8] was 0.25 mg/L, the “n (% resistant)” value [8] was 0 (0.0) n (%) and the “Mean MIC” value [9] was 2.25 mg/L. The “Mean MIC” value [10] was 2.00 mg/L, the “n (% resistant)” value [10] was 0 (0.0) n (%) and the “Mean MIC” value [11] was 4.00 mg/L. For the same molecule, the “Mean MIC” value [12] was 0.12 mg/L, the “n (% resistant)” value [12] was 0 (0.0) n (%) and the “Mean MIC” value [13] was 2.00 mg/L. For the same molecule, the “n (% resistant)” value [13] was 0 (0.0) n (%).

Source: patent publication US20240285571A1, “METHODS OF TREATING BONE INFECTIONS” (MICROBION CORPORATION, priority 2020, published 2024)
